From patent US20240342071A1, “HEXAPEPTIDE,COSMETIC COMPOSITION OR PHARMACEUTICAL COMPOSITION CONTAINING SAME, AND USE OF HEXAPEPTIDE” (SHENZHEN WINKEY TECHNOLOGY CO., LTD, priority 2021, published 2024) come the findings set out here.

The test system of one series is HaCaT cells. Put plainly: Cell viability assay (MTT) on HaCaT cells. It counts as cell-based, Human. The note with it: 72 h; for toxicity to HaCaT cells: 100 ppm, compared with the control group. From the text: Phosphate-buffered saline (PBS) (Gibco), thiazolyl blue (MTT) (Sigma), dimethyl sulfoxide (DMSO) (Sigma), a high glucose culture medium (DMEM) (Gibco), and fetal bovine serum (Gibco).
Human keratinocytes (HaCaT) were purchased from the Kunming Cell Bank of China Center for Type Culture Collection under the Chinese Academy of Sciences.
The peptide Ac-Phe-Phe-Trp-Phe-His-Val-NH2 (hereinafter referred to as the reference peptide) at a test concentration of 1 ppm, 10 ppm, 50 ppm, and 100 ppm respectively; • the peptide (5) at a test concentration of 1 ppm, 10 ppm, 50 ppm, and 100 ppm, respectively; • the peptide (11) at a test concentration of 1 ppm, 10 ppm, 50 ppm, and 100 ppm, respectively; • the peptide (17) at a test concentration of 1 ppm, 10 ppm, 50 ppm, and 100 ppm, respectively. Control group: • PBS blank control.
The frozen HaCaT cells were cultured and passaged at a ratio of 1:2 to about the 5th generation, and the cells in better growth were selected as experiment subjects.
The cells were inoculated in a 96-well plate at 2000 cells/well. After the cells adhered to the wall, samples of the drug groups and the control group were added according to the multiple dilution method, supplemented with a culture medium to 200 μL, and incubated in a 5% CO2 incubator at 37° C. for 72 h.
Then 22 μL 5 mg/ml MTT was added to each well and the incubation was continued in the 5% CO2 incubator at 37° C. for 4 h. The original solution was removed and 150 μL/well DMSO was added. After 5 min, the microplate reader was used to read the reference OD values at 490 nm and 630 nm wavelengths.
The MTT assay is a method of detecting cell survival and growth. The control group is taken as a reference value. Four dosage concentrations were set from high to low for each sample, and cell viability assays were carried out on HaCaT cells. The measured OD values are directly proportional to cell viability.

Another series deals with TNF-α. Put plainly: Anti-inflammatory cell assay: TNF-α ELISA in LPS-stimulated RAW 264.7 cells. Format: cell-based, Mouse. To be noted: 200 ng/mL LPS; for effect on TNF-α expression compared with the positive drug dexamethasone: 100 ppm peptide vs 50 ng/ml dexamethasone, RAW 264.7; for TNF-α expression: 100 ppm, RAW 264.7, 48 h, vs LPS alone. Here is the method: (§1) Fetal bovine serum, DMEM culture medium, penicillin, streptomycin, an IL-6 ELISA kit and a TNF-α ELISA kit.
(§2) Mouse monocyte macrophages (RAW 264.7 cells).
(§3) 100 ppm of the reference peptide, 100 ppm of the peptide (5), 100 ppm of the peptide (11), and 100 ppm of the peptide (17); the peptides were dissolved with a PBS solution, respectively.
(§4) The frozen RAW 264.7 cells were cultured and passaged at a ratio of 1:2 to about the 5th generation, and the cells in better growth were selected as experiment subjects.
(§5) A cell suspension was diluted properly and inoculated on a 6-well plate at 100,000 cells/well. When the cells were about 80% confluent, an LPS-stimulated inflammation model was established. A blank control group (control), a LPS group, a dexamethasone group (DXM), and polypeptide groups were set. The blank control group was supplemented with the culture medium to 1000 μL; in the LPS group, 200 ng/mL LPS was added, and supplemented with the culture medium to 1000 μL; in the dexamethasone group, 200 ng/mL LPS and 50 ng/ml dexamethasone were added, and supplemented with the culture medium to 1000 μL; in the polypeptide groups, 200 ng/mL LPS and a polypeptide were added, and supplemented with culture medium to 1000 μL (the final test concentration of the polypeptide was 100 ppm). The above groups were further incubated in a 5% CO2 incubator at 37° C. for 48 h. The solutions were centrifuged at 3000 rpm for 15 min, in each of which a cell supernatant was collected to obtain a sample liquid. Operations were performed according to the instructions of the IL-6 and TNF-α ELISA kits.
(§6) Inflammatory factors such as TNF-α and IL-6 can cause the body's immune overresponse, leading to skin ulcers, redness and other problems. Therefore, inhibiting inflammatory factors such as TNF-α and IL-6 secreted by monocytes in the skin can achieve anti-inflammatory and repairing effects. An inflammation model was established by stimulating RAW 264.7 cells with 200 ng/mL LPS to investigate the anti-inflammatory and repairing effects of the peptides of the present invention.
(In general: In an ELISA, binding on a coated surface is turned into a signal by an enzyme label.)

The subject of the next series is IL-6. Put plainly: Anti-inflammatory cell assay: IL-6 ELISA in LPS-stimulated RAW 264.7 cells. It counts as cell-based, Mouse. The note with it: 100 ppm, 200 ng/mL LPS, RAW 264.7, 48 h, vs LPS alone. Here is the method:
as §1, §2, §3, §4, §5, §6

As to “Ac-FFWFHG-NH2 [peptide (17), Ac-Phe-Phe-Trp-Phe-His-Gly-NH2]”, the “toxicity to HaCaT cells” value in the series with HaCaT cells was “no toxicity”. Besides, in the series with TNF-α, the “effect on TNF-α expression compared with the positive drug dexamethasone” value is recorded as “equivalent to that of the positive drug dexamethasone, or having even more excellent effects than dexamethasone” and the TNF-α expression entry was “significantly down-regulated”. In addition, in the series on IL-6, the “expression of IL-6” value was “significantly down-regulated”.

With “Ac-FFWFHL-NH2 [peptide (11), Ac-Phe-Phe-Trp-Phe-His-Leu-NH2]”, the “toxicity to HaCaT cells” value in the series on HaCaT cells is given as “no toxicity”. In the series on TNF-α, the “effect on TNF-α expression compared with the positive drug dexamethasone” value was “equivalent to that of the positive drug dexamethasone, or having even more excellent effects than dexamethasone” and the TNF-α expression entry is on record as “significantly down-regulated”. The “expression of IL-6” value in the series with IL-6 was “significantly down-regulated”.

As to “Ac-FFWFHV-NH2 [reference peptide, Ac-Phe-Phe-Trp-Phe-His-Val-NH2, reference compound]”, the “toxicity to HaCaT cells” value in the series on HaCaT cells is on record as “no toxicity”. In addition, the “proliferation effects on cells” value with HaCaT cells (HaCaT, 50 ppm) is listed as “significant proliferation effects”. In the series on TNF-α, the “effect on TNF-α expression compared with the positive drug dexamethasone” value was “equivalent to that of the positive drug dexamethasone, or having even more excellent effects than dexamethasone” and the TNF-α expression entry is reported as “significantly down-regulated”. For the same substance, the “expression of IL-6” value in the series on IL-6 is on record as “significantly down-regulated”.

With “Ac-FFWFKV-NH2 [peptide (5), Ac-Phe-Phe-Trp-Phe-Lys-Val-NH2]”, in the series with HaCaT cells, the “toxicity to HaCaT cells” value was “no toxicity”.
